Counter-ions that a name gives are not always drawn.

The test system of the assay is Acinetobacter baumannii ATCC17961. As to the kind of experiment: Antimicrobial susceptibility testing: 90% growth inhibitory concentration (IC90) determination. It is filed as cell-based. The settings on record: Acinetobacter baumannii, ATCC17961, 16 h, 90% growth inhibitory concentration against Acinetobacter baumannii ATCC17961, Iso-Sensitest broth, OD 600 nm over 16 h; read-out: ATCC 17961 IC90. Summed up: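 Twofold serial dilutions (e.g. 10 to 0.0195 μM final) in Iso-Sensitest broth inoculated at ~5×10^5 CFU/mL, incubated at 35±2° C. OD600 read every minute for 16 h; IC90 is the concentration inhibiting 90% of growth during logarithmic phase.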
On to `Cn1c(-c2cn(-c3ccc(NCCCCCCN)cn3)nc2C(F)(F)F)cnc1C(=O)Nc1ccc(C(=O)N2CCN(C(=O)C3CC[N+](CC(=O)O)(CC4CNC4)CC3)CC2)c(Cl)c1` (stereo not shown) [Example 51, 2-[4-[4-[4-[[5-[1-[5-(6-aminohexylamino)-2-pyridyl]-3-(trifluoromethyl)pyrazol-4-yl]-1-methyl-imidazole-2-carbonyl]amino]-2-chloro-benzoyl]piperazine-1-carbonyl]-1-(azetidin-3-ylmethyl)piperidin-1-ium-1-yl]acetic acid. 1:1 2,2,2-trifluoroacetic acid. 1:1 2,2,2-trifluoroacetate], for which the IC90 was found to be 520 nM.

On to `Cn1c(-c2cn(-c3ccc(OCCN)cn3)nc2C(F)(F)F)cnc1C(=O)Nc1ccc(C(=O)N2CCN(C(=O)C3CC[N+](CC(=O)O)(CC4CNC4)CC3)CC2)c(Cl)c1` (stereo not shown) [Example 2, 2-[4-[4-[4-[[5-[1-[5-(2-aminoethoxy)-2-pyridyl]-3-(trifluoromethyl)pyrazol-4-yl]-1-methyl-imidazole-2-carbonyl]amino]-2-chloro-benzoyl]piperazine-1-carbonyl]-1-(azetidin-3-ylmethyl)piperidin-1-ium-1-yl]acetic acid. 1:1 2,2,2-trifluoroacetic acid. 1:1 2,2,2-trifluoroacetate], for which the IC90 came to 330 nM.

Regarding `Cn1c(-c2cn(-c3ccc(N)cn3)nc2C(F)(F)F)cnc1C(=O)Nc1ccc(C(=O)N2CCN(C(=O)[C@H]3CC[N@@+](CCCN)(CC(=O)O)CC3)CC2)c(Cl)c1` [Example 32, cis-2-[1-(3-aminopropyl)-4-[4-[4-[[5-[1-(5-amino-2-pyridyl)-3-(trifluoromethyl)pyrazol-4-yl]-1-methyl-imidazole-2-carbonyl]amino]-2-chloro-benzoyl]piperazine-1-carbonyl]piperidin-1-ium-1-yl]acetic acid. 1:1 2,2,2-trifluoroacetate], the IC90 came out at 370 nM.

Take `Cn1c(-c2cn(-c3ccc4[nH]c(CO)cc4n3)nc2C(F)(F)F)cnc1C(=O)Nc1ccc(C(=O)N2CCN(C(=O)C3CC[N+](CCCN)(CC(=O)O)CC3)CC2)c(Cl)c1` (stereo not shown) [Example 145]: the IC90 stood at 205 nM.

Regarding `Cn1c(-c2cn(-c3sncc3N)nc2C(F)(F)F)cnc1C(=O)Nc1ccc(C(=O)N2CCN(C(=O)C3CC[N+](CC(=O)O)(CC4CNC4)CC3)CC2)c(Cl)c1` (stereo not shown) [Example 94, 2-[4-[4-[4-[[5-[1-(4-Aminoisothiazol-5-yl)-3-(trifluoromethyl)pyrazol-4-yl]-1-methyl-imidazole-2-carbonyl]amino]-2-chloro-benzoyl]piperazine-1-carbonyl]-1-(azetidin-3-ylmethyl)piperidin-1-ium-1-yl]acetic Acid.1:1 formate], the IC90 was found to be 1730 nM.

In the case of `Cn1c(-c2cn(-c3ccc(N)cn3)nc2C(F)(F)F)cnc1C(=O)Nc1ccc(C(=O)N2CCN(C(=O)C3CC[N+](CC(=O)O)(CC4CNC4)CC3)CC23CC3)c(Cl)c1` (stereo not shown) [Example 93, 2-[4-[4-[4-[[5-[1-(5-amino-2-pyridyl)-3-(trifluoromethyl)pyrazol-4-yl]-1-methyl-imidazole-2-carbonyl]amino]-2-chloro-benzoyl]-4,7-diazaspiro[2.5]octane-7-carbonyl]-1-(azetidin-3-ylmethyl)piperidin-1-ium-1-yl]acetic acid. 1:1 formate], the concentration for an effect of 90% (IC90) was 1660 nM.

As to `Cn1c(-c2cn(-c3ccc(N)c(N)n3)nc2C(F)(F)F)cnc1C(=O)Nc1ccc(C(=O)N2CCN(C(=O)C3CC[N+](CC(=O)O)(CC4CNC4)CC3)CC2)c(Cl)c1` (stereo not shown) [Example 67, 2-[1-(azetidin-3-ylmethyl)-4-[4-[2-chloro-4-[[5-[1-(5,6-diamino-2-pyridyl)-3-(trifluoromethyl)pyrazol-4-yl]-1-methyl-imidazole-2-carbonyl]amino]benzoyl]piperazine-1-carbonyl]piperidin-1-ium-1-yl]acetic acid. 1:1 2,2,2-trifluoroacetate], the IC90 was found to be 720 nM.

A word on the IC90: it is the concentration at which the effect reaches the 90% level.

For the origin of these results see patent US20250179066A1, “ZWITTERIONIC ANTIBACTERIAL COMPOUNDS” (Hoffmann-La Roche Inc., priority 2022, published 2025).
